{
  "source": "paper PMC5718994",
  "about": "“Synthesis and analytical characterization of new thiazol-2-(3H)-ones as human neutrophil elastase (HNE) inhibitors” (Chemistry Central Journal, 2017)",
  "data": [
    {"molecular_target": "T1, HNE (Calbiochem) (Homo sapiens, UniProt P08246)", "T1 construct": "purchased Calbiochem", "T1 sequence (P08246 30-267)": "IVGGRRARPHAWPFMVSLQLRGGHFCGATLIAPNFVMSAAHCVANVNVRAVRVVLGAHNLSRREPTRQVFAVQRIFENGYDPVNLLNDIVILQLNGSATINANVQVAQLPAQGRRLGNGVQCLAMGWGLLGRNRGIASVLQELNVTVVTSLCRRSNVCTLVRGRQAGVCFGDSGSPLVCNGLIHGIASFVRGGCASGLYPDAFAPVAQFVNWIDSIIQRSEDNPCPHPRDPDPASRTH", "experiment": "HNE inhibition assay", "type": "biochemical", "conditions": "highest concentration tested 40 µM", "description": "Compounds were dissolved in 100% DMSO at 5 mM stock concentrations. The final concentration of DMSO in the reactions was 1%, and this level of DMSO had no effect on enzyme activity. The HNE inhibition assay was performed in black flat-bottom 96-well microtiter plates. Briefly, a buffer solution containing 200 mM Tris–HCl, pH 7.5, 0.01% bovine serum albumin, and 0.05% Tween-20 and 20 mU/mL of HNE (Calbiochem) was added to wells containing different concentrations of each compound. The reaction was initiated by addition of 25 μM elastase substrate (N-methylsuccinyl-Ala–Ala-Pro-Val-7-amino-methyl-coumarin, Calbiochem) in a final reaction volume of 100 μL/well. Kinetic measurements were obtained every 30 s for 10 min at 25 °C using a Fluoroskan Ascent FL fluorescence microplate reader (Thermo Electron, MA) with excitation and emission wavelengths at 355 and 460 nm, respectively.", "values": [
      {"smiles": "O=C(OCn1c(-c2ccccc2)csc1=O)c1ccccc1", "note": "[Compound 5a, (2-Oxo-4-phenylthiazol-3(2H)-yl)methyl benzoate]", "HNE inhibitory activity": "inactivity"},
      {"smiles": "CC(=O)c1sc(=O)n(COC(=O)c2ccccc2)c1C", "note": "[Compound 5b, (5-Acetyl-4-methyl-2-oxothiazol-3(2H)-yl)methyl benzoate]", "HNE inhibitory activity": "inactivity"},
      {"smiles": "Cc1cccc(Cn2c(-c3ccccc3)csc2=O)c1", "note": "[Compound 5c, 3-(3-Methylbenzyl)-4-phenylthiazol-2(3H)-one]", "HNE inhibitory activity": "inactive"},
      {"smiles": "O=C(OCOc1nc(-c2ccccc2)cs1)c1ccccc1", "note": "[Compound 6a, (4-Phenylthiazol-2-yloxy)methyl benzoate]", "HNE inhibitory activity": "inactivity"},
      {"smiles": "CC(=O)c1sc(OCOC(=O)c2ccccc2)nc1C", "note": "[Compound 6b, (5-Acetyl-4-methylthiazol-2-yloxy)methyl benzoate]", "HNE inhibitory activity": "inactivity"},
      {"smiles": "Cc1cccc(COc2nc(-c3ccccc3)cs2)c1", "note": "[Compound 6c, 2-(3-Methylbenzyloxy)-4-phenylthiazole]", "HNE inhibitory activity": "inactive"}
    ]},
    {"system": "not given", "experiment": "not given", "conditions": "not given", "units": {"melting point": "°C"}, "values": [
      {"smiles": "O=C(Cn1c(-c2ccccc2)csc1=O)Nc1ccccc1", "note": "[Compound 2a, 2-(2-Oxo-4-phenylthiazol-3(2H)-yl)-N-phenylacetamide]", "melting point": "177 to 179"},
      {"smiles": "O=C(Cn1c(-c2ccccc2)csc1=O)Nc1c(Cl)cccc1Cl", "note": "[Compound 2b, N-(2,6-dichlorophenyl)-2-(2-oxo-4-phenylthiazol-3(2H)-yl)acetamide]", "melting point": "213 to 216"},
      {"smiles": "CC(=O)c1sc(=O)n(CC(=O)Nc2ccccc2)c1C", "note": "[Compound 2c, 2-(5-Acetyl-4-methyl-2-oxothiazol-3(2H)-yl)-N-phenylacetamide]", "melting point": "188 to 190"},
      {"smiles": "CC(=O)c1sc(=O)n(CC(=O)Nc2c(Cl)cccc2Cl)c1C", "note": "[Compound 2d, 2-(5-Acetyl-4-methyl-2-oxothiazol-3(2H)-yl)-N-(2,6-dichlorophenyl)acetamide]", "melting point": "209 to 211"},
      {"smiles": "Cc1csc(=O)n1CC(=O)Nc1ccccc1", "note": "[Compound 2e, 2-(4-Methyl-2-oxothiazol-3(2H)-yl)-N-phenylacetamide]", "melting point": "188 to 191"},
      {"smiles": "Cc1csc(=O)n1CC(=O)Nc1c(Cl)cccc1Cl", "note": "[Compound 2f, N-(2,6-dichlorophenyl)-2-(4-methyl-2-oxothiazol-3(2H)-yl)acetamide]", "melting point": "266 to 269"},
      {"smiles": "Cc1cccc(-n2c(-c3ccccc3)csc2=O)c1", "note": "[Compound 3a, 4-Phenyl-3-m-tolyl-thiazol-2(3H)-one]", "melting point": "118 to 121"},
      {"smiles": "O=c1scc(-c2ccccc2)n1-c1cccc(C(F)(F)F)c1", "note": "[Compound 3b, 4-Phenyl-3-[3-(trifluoromethyl)phenyl]thiazol-2(3H)-one]", "melting point": "84 to 87"},
      {"smiles": "CC(=O)c1sc(=O)n(-c2cccc(C)c2)c1C", "note": "[Compound 3c, 5-Acetyl-4-methyl-3-m-tolylthiazol-2(3H)-one]", "melting point": "104 to 106"},
      {"smiles": "CC(=O)c1sc(=O)n(-c2cccc(C(F)(F)F)c2)c1C", "note": "[Compound 3d, 5-Acetyl-4-methyl-3-[3-(trifluoromethyl)phenyl]thiazol-2(3H)-one]", "melting point": "147 to 150"},
      {"smiles": "Cc1cccc(-n2c(C)csc2=O)c1", "note": "[Compound 3e, 4-Methyl-3-m-tolyl-thiazol-2(3H)-one]", "melting point": "69 to 72"},
      {"smiles": "CC(=O)c1sc(=O)n(COC(=O)c2ccccc2)c1C", "note": "[Compound 5b, (5-Acetyl-4-methyl-2-oxothiazol-3(2H)-yl)methyl benzoate]", "melting point": "121 to 123"}
    ]},
    {"system": "HNE", "experiment": "not given", "conditions": "HNE inhibitor, Fig. 1; cited from earlier work", "units": {"IC50": "nM"}, "values": [
      {"smiles": "Cc1c(-c2ccnn2C)cc(C(=O)NCc2ccc(S(C)(=O)=O)cn2)c(=O)n1-c1cccc(C(F)(F)F)c1", "note": "[Alvelestat]", "IC50": 12}
    ]}
  ]
}
